Molecules are shown by their SMILES. Like-named read-outs stand apart in the source and are kept apart here.

Here are results for five compounds from patent US8232284B2, “Heteroaryloxy quinazoline derivative” (MSD K. K., priority 2007, dated 2012).

The subject of experiment [1] is male beagles. The experiment is described as follows: Pharmacological Test Example 2: drug efficacy test in dogs (plasma glucose level AUC). The experiment is classed as in vivo. The conditions noted are these: for Percentage reduction (%) in plasma glucose level AUC: male beagles fasted overnight, oral 1 mg/kg in 0.5% methyl cellulose, compared to control group up to 4 hours after administration. How it is done: From the cephalic vein of male beagles fasted overnight (10.4-13.7 kg body weight), blood was collected prior to administration, followed by oral administration of the test drug suspended in a 0.5% methyl cellulose solution (1 mg/kg in both of the compounds of Example A and Example 18), while a 0.5% methyl cellulose solution was orally administered to the control group. The blood was collected every 0.5 or 1 hour after the administration of the test drug. Plasma was separated from the obtained blood to determine a plasma glucose level using Determina-GL-E (Kyowa Medics). Percentage reductions in plasma glucose level AUC compared to the control group up to 4 hours after the administration were described below.

Experiment [2] relates to male beagles. In words: Pharmacological Test Example 3: drug efficacy test in dogs (plasma glucose level AUC). As to conditions: male beagles fasted overnight; oral 1 mg/kg in 0.5% methyl cellulose; compared to control group up to 4 hours after administration. The experiment is classed as in vivo. As to the method:
From the cephalic vein of male beagles fasted overnight (8.5-13.7 kg body weight), blood was collected prior to administration, followed by oral administration of the test drug suspended in a 0.5% methyl cellulose solution (1 mg/kg in both of Examples 30 and 31), while a 0.5% methyl cellulose solution was orally administered to the control group. The blood was collected every 0.5 or 1 hour after the administration of the test drug. Plasma was separated from the obtained blood to determine a plasma glucose level using Determina-GL-E (Kyowa Medics).
Percentage reductions in plasma glucose level AUC compared to the control group up to 4 hours after the administration were described below.

Experiment [3] concerns the target T1, recombinant human liver GK (Homo sapiens, UniProt P35557).
T1 construct: made in house; host or cells: E. coli
T1 sequence (P35557 1-466 isoform P35557-2): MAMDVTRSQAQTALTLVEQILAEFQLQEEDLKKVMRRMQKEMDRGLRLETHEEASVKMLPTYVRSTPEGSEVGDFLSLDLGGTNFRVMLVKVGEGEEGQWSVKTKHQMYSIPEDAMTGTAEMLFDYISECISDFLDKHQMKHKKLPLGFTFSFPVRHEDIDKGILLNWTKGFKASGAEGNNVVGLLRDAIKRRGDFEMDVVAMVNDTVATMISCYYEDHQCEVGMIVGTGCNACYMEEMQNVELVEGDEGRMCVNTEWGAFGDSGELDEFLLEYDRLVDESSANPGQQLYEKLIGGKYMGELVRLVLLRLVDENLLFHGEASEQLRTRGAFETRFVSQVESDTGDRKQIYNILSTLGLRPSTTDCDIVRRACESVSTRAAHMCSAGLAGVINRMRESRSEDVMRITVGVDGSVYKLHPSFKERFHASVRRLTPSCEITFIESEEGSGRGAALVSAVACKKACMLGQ
In words: Glucokinase-activating effect (Thio-NADH coupled assay with G6PDH, 2.5 mM glucose). The experiment is classed as biochemical. The text has this:
The excellent glucokinase-activating effect of the compounds of the formula (I) may be determined by a method described in literature (for example, Diabetes, Vol. 45, pp. 1671-1677, 1996), or in accordance with it.
The glucokinase activity may be determined not by directly measuring glucose-6-phosphate but by measuring the level of Thio-NADH, which is produced when a reporter enzyme, glucose-6-phosphate dehydrogenase produces phosphogluconolactone from glucose-6-phosphate, and based on the level, the degree of glucokinase activation by the compound tested may be determined
In this assay, used was a recombinant human liver GK, which was expressed by E. coli as a FLAG fusion protein therein and was purified by ANTIFLAG M2 AFFINITY GEL (Sigma).
Using a flat-bottomed 96-well plate, the assay was carried out at 30° C. 69 μl of an assay buffer (25 mM Hepes Buffer/pH=7.2, 2 mM MgCl2, 1 mM ATP, 0.5 mM TNAD, 1 mM dithiothreitol) was put into the plate, and 1 μl of a DMSO solution of the compound or DMSO alone as a control was added thereto. Next, 20 μl of an enzyme mixture (FLAG-GK, 20 U/ml G6PDH) cooled in ice was added to it, and 10 μl of a substrate, 25 mM glucose was added to it, and the reaction was initiated (final glucose concentration=2.5 mM).
After the start of the reaction, the increase in the absorbance at 405 nm was measured for 12 minutes at intervals of 30 seconds, and the increase for the first 5 minutes was used for assessing the compound tested. FLAG-GK was added so that the absorbance increase after 5 minutes in the presence of 1% DMSO could be from 0.04 to 0.06.
The OD level of the DMSO control was set as 100%; and the OD level of the test compound at different concentrations was determined. From the OD level at each concentration, Emax (%) and EC50 (μM) were computed and used as the index of the GK-activating potency of the compound.
The comparative test was conducted to compare the compound of example 18, 31 and 32 in this invention with the compound (A) in the patent document 1. The test method in vitro was similar to pharmacological experiment 1 (glucokinase-activating effect).

Setting [4] is: comparative test in vitro, similar to pharmacological experiment 1, read-out: GK activity EC50.

For the compound `Cc1cnc(Nc2ncnc3ccc(Oc4ncccc4Cl)cc23)cn1` [Compound A], the “drug efficacy in the dogs” value in experiment [1] (in vivo tests in dogs, summary statement) was “no drug efficacy”. Besides, the “Percentage reduction (%) in plasma glucose level AUC” value (“Percentage reduction (%)” below) in experiment [1] and in experiment [2] was −1% throughout.
In the case of `CNCCOc1cnc(Oc2ccc3ncnc(Nc4cnc(C)cn4)c3c2)c(Cl)c1.Cl` [Example 32, 6-({3-chloro-5-[2-(methylamino)ethoxy]pyridin-2-yl}oxy)-N-(5-methylpyrazin-2-yl)quinazoline-4-amine hydrochloride], in experiment [3] (setting [4]), the EC50 was 40 nM. In experiment [2], the “Percentage reduction (%)” value was 17.5%.
For `Cc1cnc(Nc2ncnc3ccc(Oc4ccc(OCCN(C)C)cn4)cc23)cn1` [Example 31, 6-({5-[2-(dimethylamino)ethoxy]pyridin-2-yl}oxy)-N-(5-methylpyrazin-2-yl)quinazoline-4-amine], in that order: 440 nM and 7.9%.
For `CCNCCOc1cnc(Oc2ccc3ncnc(Nc4ccn(C)n4)c3c2)c(Cl)c1.Cl` [Example 18, 6-({3-chloro-5-[2-(ethylamino)ethoxy]pyridin-2-yl}oxy)-N-(1-methyl-1H-pyrazol-3-yl)quinazoline-4-amine hydrochloride], the EC50 in experiment [3] (setting [4]) was found to be 30 nM. Further, the “Percentage reduction (%)” value in experiment [1] was determined as 26%.
As for `Cn1ccc(Nc2ncnc3ccc(Oc4ncc(OCCO)cc4F)cc23)n1` [Example 54, 2-{[5-fluoro-6-({-4-[(1-methyl-1H-pyrazol-3-yl)amino]quinazolin-6-yl}oxy)pyridin-3-yl]oxy}ethanol], in experiment [3] (final glucose concentration 2.5 mM, 30° C., read-out: EC50), the concentration giving a half-maximal response (EC50) came to 360 nM.
